According to US8022225B2, “Triazole derivative” (Taisho Pharmaceutical Co., Ltd, priority 2004, dated 2011):

Legend:
human Edg-1(S1P1) [1] = molecular target: T1, human Edg-1(S1P1) (Homo sapiens, UniProt P21453); experiment: Cell system binding test: inhibition of [3H]-S1P binding to Edg-1(S1P1) gene transferred HEK-293 cells; settings: [3H]-S1P 10 nM
T1 construct: expressed in transfected cells; host or cells: HEK-293

human Edg-1(S1P1) [2] = molecular target: T1, human Edg-1(S1P1); experiment: Membrane system binding test: inhibition of [33P]-S1P binding to the membrane fraction of Edg-1(S1P1) gene transferred HEK-293 cells; settings: [33P]-S1P 0.1 nM
Method in brief: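 Membranes from HEK-293 cells transfected with Edg-1(S1P1) incubated 1 h at 30 °C with 0.1 nM [^33P]-S1P and compound at 10^−5 M (0.1% DMSO), pH 7.4 buffer with fatty acid-free BSA. Filter-bound radioactivity counted; inhibition rate calculated against no-compound binding, with untransfected-cell background subtracted.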

[3] = 10 μM compound, read-out: Cell system binding test % inhibition (10 μM)
[4] = 10 μM compound, membrane fraction of Edg-1(S1P1) gene transferred HEK-293 cells, read-out: Membrane system binding test % inhibition (10 μM)
[5] = 10 μM compound, membrane fraction of Edg-1(S1P1) gene transferred HEK-293 cells
[6] = test compound 10^-5 M, 1 hour, read-out: Edg-1(S1P1) binding inhibition rate (cell system binding test)
[7] = test compound 10^-5 M, 1 hour at 30° C., HEK-293 membrane fraction, read-out: Edg-1(S1P1) binding inhibition rate (membrane system binding test)

T1 sequence (P21453 whole entry): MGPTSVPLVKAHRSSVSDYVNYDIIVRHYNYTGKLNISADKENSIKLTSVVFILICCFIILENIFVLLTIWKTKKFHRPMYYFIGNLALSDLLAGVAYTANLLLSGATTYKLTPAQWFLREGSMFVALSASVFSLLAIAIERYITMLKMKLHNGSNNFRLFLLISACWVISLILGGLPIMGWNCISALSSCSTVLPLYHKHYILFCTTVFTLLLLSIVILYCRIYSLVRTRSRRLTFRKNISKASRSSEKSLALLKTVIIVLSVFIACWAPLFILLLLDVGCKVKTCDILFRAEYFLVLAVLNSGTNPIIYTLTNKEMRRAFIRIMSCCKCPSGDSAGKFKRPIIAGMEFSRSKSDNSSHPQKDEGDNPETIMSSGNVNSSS

Row | SMILES | inhibition at 10 µM (human Edg-1(S1P1) [1]; [3]) [%] | inhibition at 10 µM (human Edg-1(S1P1) [2]; [4]) [%] | inhibition at 10 µM (human Edg-1(S1P1) [1]; [6]) [%] | inhibition at 10 µM (human Edg-1(S1P1) [2]; [7]) [%] | further results
1 | CCOc1nnc([C@@H](C)NS(=O)(=O)c2cccc(Br)c2)n1CC [Compound 408] | 88.5 | 84.9 |  |  | 
2 | CCOc1nnc([C@@H](C)NS(=O)(=O)c2ccc(Br)cc2)n1CC [Compound 409] | 88.1 | 92.2 |  |  | 
3 | CCOc1nnc([C@@H](C)NS(=O)(=O)c2ccc(C)c(C)c2)n1CC [Compound 410] | 96.4 | 86.1 |  |  | 
4 | CCOc1nnc([C@@H](C)NS(=O)(=O)c2ccc(C)c(F)c2)n1CC [Compound 411] | 95.9 | 81.8 |  |  | 
5 | CCOc1nnc([C@@H](C)NS(=O)(=O)c2ccc(Br)c(Br)c2)n1CC [Compound 412] | 99.9 | 89.1 |  |  | 
6 | CCOc1nnc([C@@H](C)NS(=O)(=O)c2ccc([N+](=O)[O-])cc2)n1CC [Compound 413] | 100 | 93.8 |  |  | 
7 | CCOc1nnc([C@@H](C)NS(=O)(=O)c2cccc(C(F)(F)F)c2)n1CC [Compound 414] | 101 | 81 |  |  | 
8 | CCOc1nnc([C@@H](C)NS(=O)(=O)c2cccc(OC(F)(F)F)c2)n1CC [Compound 415] | 99.6 | 75.1 |  |  | 
9 | CCOc1nnc([C@@H](C)NS(=O)(=O)c2cccc(OC(F)F)c2)n1CC [Compound 416] | 100 | 77.7 |  |  | 
10 | CCOc1nnc([C@@H](C)NS(=O)(=O)c2cccc(OC)c2)n1CC [Compound 417] | 97.9 | 64.8 |  |  | 
11 | CCOc1nnc([C@@H](C)NS(=O)(=O)c2ccc3c(c2)OCO3)n1CC [Compound 418] | 99.5 | 70.4 |  |  | 
12 | CCOc1nnc([C@@H](C)NS(=O)(=O)c2ccc(OC)cc2)n1CC [Compound 420] | 93.3 | 50.1 |  |  | 
13 | CCn1c(OC)nnc1[C@@H](Cc1ccc(Cl)cc1)NS(=O)(=O)c1ccc(Cl)cc1 [Compound 426] | 95.7 | 101 |  |  | 
14 | CCn1c(OC)nnc1[C@@H](C)NS(=O)(=O)c1cc2ccccc2o1 [Compound 427] | 97.5 | 67 |  |  | 
15 | CCOc1nnc([C@@H](C)NS(=O)(=O)c2ccc(Br)c(C)c2)n1CC [Compound 428] | 101 | 99.2 |  |  | 
16 | CCOc1nnc([C@@H](C)NS(=O)(=O)c2ccc(C)cc2)n1CC [Compound 429] | 95.1 | 74.2 |  |  | 
17 | CCOc1nnc([C@@H](C)NS(=O)(=O)c2cccc(Cl)c2C)n1CC [Compound 430] | 97.9 | 89.2 |  |  | 
18 | CCOc1nnc([C@@H](C)NS(=O)(=O)c2ccc3nsnc3c2)n1CC [Compound 431] | 98 | 94.6 |  |  | 
19 | CCOc1nnc([C@@H](C)NS(=O)(=O)c2ccc(C(F)(F)F)cc2)n1CC [Compound 432] | 92.2 | 82.9 |  |  | 
20 | CCOc1nnc([C@@H](C)NS(=O)(=O)c2cc(F)cc(F)c2)n1CC [Compound 433] | 93.8 | 70.2 |  |  | 

Row | SMILES | inhibition at 10 µM (human Edg-1(S1P1) [1]; [3]) [%] | inhibition at 10 µM (human Edg-1(S1P1) [2]; [4]) [%] | inhibition at 10 µM (human Edg-1(S1P1) [1]; [6]) [%] | inhibition at 10 µM (human Edg-1(S1P1) [2]; [7]) [%] | further results
21 | CCOc1nnc([C@@H](C)NS(=O)(=O)c2cc(Cl)c(Cl)s2)n1CC [Compound 434] | 95.6 | 90.5 |  |  | 
22 | CCOc1nnc([C@@H](C)NS(=O)(=O)c2ccc(I)cc2)n1CC [Compound 435] | 93.7 | 86.4 |  |  | 
23 | CCOc1nnc([C@@H](C)NS(=O)(=O)c2ccc(F)cc2)n1CC [Compound 436] | 94.5 | 49 |  |  | 
24 | CCOc1nnc([C@@H](C)NS(=O)(=O)c2ccc(Br)c(C(F)(F)F)c2)n1CC [Compound 437] | 101 | 93.9 |  |  | 
25 | CCn1c(OC)nnc1[C@@H](Cc1ccccc1Cl)NS(=O)(=O)c1ccc(Cl)cc1 [Compound 439] | 95 | 100 |  |  | 
26 | CCn1c(OC)nnc1[C@@H](Cc1cccc(Cl)c1)NS(=O)(=O)c1ccc(Cl)cc1 [Compound 440] | 95.1 | 102 |  |  | 
27 | CCn1c(OC)nnc1[C@@H](C)NS(=O)(=O)c1ccc2[nH]c(=O)oc2c1 [Compound 443] | 31.3 | 43 |  |  | 
28 | CCn1c(OC)nnc1[C@@H](C)NS(=O)(=O)c1ccc(NC(C)=O)cc1 [Compound 444] | 18.2 | 60.9 |  |  | 
29 | CCOc1nnc([C@@H](C)NS(=O)(=O)c2cccc(Cl)c2)n1CC [Compound 445] | 93 | 81.6 |  |  | 
30 | CCOc1nnc([C@@H](C)NS(=O)(=O)c2ccc(CC)cc2)n1CC [Compound 446] | 91.4 | 72.5 |  |  | 
31 | CCOc1nnc([C@@H](C)NS(=O)(=O)c2cccc(OC)c2)n1CC [Compound 447] |  |  |  |  | Cell system binding test % inhibition (10 μM) (human Edg-1(S1P1) [1]; 10 μM compound): 89.2%; Membrane system binding test % inhibition (10 μM) (human Edg-1(S1P1) [2]; [5]): 72.2%
32 | CCn1c(OC)nnc1[C@@H](C)NS(=O)(=O)c1ccc(Br)c(Br)c1 [Compound 448] |  |  |  |  | Cell system binding test % inhibition (10 μM) (human Edg-1(S1P1) [1]; 10 μM compound): 89.7%; Membrane system binding test % inhibition (10 μM) (human Edg-1(S1P1) [2]; [5]): 99.6%
33 | CCn1c(OC)nnc1[C@@H](C)NS(=O)(=O)c1cc(F)c(Br)cc1F [Compound 449] |  |  |  |  | Cell system binding test % inhibition (10 μM) (human Edg-1(S1P1) [1]; 10 μM compound): 91.6%; Membrane system binding test % inhibition (10 μM) (human Edg-1(S1P1) [2]; [5]): 65.9%
34 | CCOc1nnc([C@@H](C)NS(=O)(=O)c2cc(F)c(F)c(F)c2)n1CC [Compound 450] | 92.3 | 93.8 |  |  | 
35 | CCOc1nnc([C@@H](C)NS(=O)(=O)c2cc(F)c(Br)cc2F)n1CC [Compound 451] | 94.2 | 62.7 |  |  | 
36 | CCn1c(OC(C)C)nnc1[C@@H](C)NS(=O)(=O)c1ccc(Br)s1 [Compound 452] |  |  | 91.8 | 89.7 | 
37 | CCn1c(OC(C)C)nnc1[C@@H](C)NS(=O)(=O)c1ccc(Cl)c(Cl)c1 [Compound 453] |  |  | 89.4 | 97.1 | 
38 | CCn1c(OC(C)C)nnc1[C@@H](C)NS(=O)(=O)c1ccc(C)c(Cl)c1 [Compound 454] |  |  | 91.7 | 92.6 | 
39 | CCn1c(OC(C)C)nnc1[C@@H](C)NS(=O)(=O)c1ccc(Br)c(F)c1 [Compound 455] |  |  | 93.2 | 91.7 | 
40 | CCn1c(OC(C)C)nnc1[C@@H](C)NS(=O)(=O)c1ccc(F)c(Cl)c1 [Compound 456] |  |  | 87.4 | 89 | 

Row | SMILES | inhibition at 10 µM (human Edg-1(S1P1) [1]; [3]) [%] | inhibition at 10 µM (human Edg-1(S1P1) [2]; [4]) [%] | inhibition at 10 µM (human Edg-1(S1P1) [1]; [6]) [%] | inhibition at 10 µM (human Edg-1(S1P1) [2]; [7]) [%] | further results
41 | CCn1c(OC(C)C)nnc1[C@@H](C)NS(=O)(=O)c1ccc(Br)c(C)c1 [Compound 457] |  |  | 85.4 | 101 | 
42 | CCn1c(OC(C)C)nnc1[C@@H](C)NS(=O)(=O)c1cc(F)c(F)c(F)c1 [Compound 458] |  |  | 86.5 | 91.9 | 
43 | CCn1c(OC)nnc1[C@@H](COC)NS(=O)(=O)c1ccc(Cl)cc1 [Compound 459] |  |  | 89.9 | 68.5 | 
44 | CCn1c(OC(C)C)nnc1[C@@H](C)NS(=O)(=O)c1cccc(Br)c1 [Compound 460] |  |  | 94.5 | 76.3 | 
45 | CCn1c(OC(C)C)nnc1[C@@H](C)NS(=O)(=O)c1ccc(Br)cc1 [Compound 461] |  |  | 87.9 | 89.5 | 
46 | CCn1c(OC(C)C)nnc1[C@@H](C)NS(=O)(=O)c1ccc(C)c(C)c1 [Compound 462] |  |  | 83.5 | 92.1 | 
47 | CCn1c(OC(C)C)nnc1[C@@H](C)NS(=O)(=O)c1ccc(C)c(F)c1 [Compound 463] |  |  | 88.7 | 97.2 | 
48 | CCn1c(OC(C)C)nnc1[C@@H](C)NS(=O)(=O)c1ccc2ccccc2c1 [Compound 464] |  |  | 99.6 | 98.3 | 
49 | CCn1c(OC(C)C)nnc1[C@@H](C)NS(=O)(=O)c1ccc(F)c(F)c1 [Compound 465] |  |  | 97.9 | 88 | 
50 | CCn1c(OC(C)C)nnc1[C@@H](C)NS(=O)(=O)c1cccc(OC(F)F)c1 [Compound 466] |  |  | 99.3 | 88.8 | 
51 | CCn1c(OC(C)C)nnc1[C@@H](C)NS(=O)(=O)c1ccc(Br)c(Br)c1 [Compound 467] |  |  | 100 | 98.6 | 
52 | CCn1c(OC(C)C)nnc1[C@@H](C)NS(=O)(=O)c1cccc(C(F)(F)F)c1 [Compound 468] |  |  | 96.9 | 75.8 | 
53 | CCn1c(OC(C)C)nnc1[C@@H](C)NS(=O)(=O)c1cccc(OC(F)(F)F)c1 [Compound 469] |  |  | 95.9 | 83.9 | 
54 | CCn1c(OC(C)C)nnc1[C@@H](C)NS(=O)(=O)c1cccc(C)c1 [Compound 470] |  |  | 91.6 | 80.8 | 
55 | CCn1c(OC(C)C)nnc1[C@@H](C)NS(=O)(=O)c1cccc(Cl)c1C [Compound 471] |  |  | 96.5 | 91 | 
56 | CCn1c(OC(C)C)nnc1[C@@H](C)NS(=O)(=O)c1ccc2nsnc2c1 [Compound 472] |  |  | 102 | 94.4 | 
57 | CCn1c(OC(C)C)nnc1[C@@H](C)NS(=O)(=O)c1ccc(C(F)(F)F)cc1 [Compound 473] |  |  | 95.1 | 91.7 | 
58 | CCn1c(OC(C)C)nnc1[C@@H](C)NS(=O)(=O)c1cc(F)cc(F)c1 [Compound 474] |  |  | 93 | 79 | 
